These results are taken from patent US10894040B2, “S1P modulating agents” (BIOGEN MA INC., priority 2011, dated 2021).

A value given as a limit tells only on which side of the number the result lay.

For this experiment, the system named is A2B5+ OPCs. In words: OPC differentiation assay. It is filed as cell-based, Sprague Dawley rats. The conditions noted are these: 3-day incubation; for activity in the OPC assay at 2 micromolar / activity in the OPC assay at 20 micromolar: symbols not defined in the patent. On the procedure:
OPC Differentiation Assay
Enriched populations of oligodendrocytes were grown from post-natal day 2 (P2) female Sprague Dawley rats. The forebrain was dissected out and placed in Hank's buffered saline solution (HBSS; Invitrogen, Grand Island, N.Y.). The tissue was cut into 1 mm fragments and incubated at 37° C. for 15 minutes in 0.01% trypsin and 10 μg/mL DNase. Dissociated cells were plated on poly-L-lysine-coated T75 tissue culture flasks and grown at 37° C. for 10 days in Dulbecco's modified Eagle's medium (DMEM) with 20% fetal calf serum (Invitrogen). A2B5^+ OPCs were collected by shaking the flask overnight at 200 rpm and 37° C., resulting in a 95% pure population.
For the differentiation assay, 2 μM and 20 μM antagonist or the same concentrations of vehicle (DMSO) were applied to OPCs cultured in CNTF/T3 containing media. After a 3-day incubation, […], cell were lysed and then subjected to MSD (Meso Scale Discovery-R) analysis. EC50 was calculated by Prism using a nonlinear sigmoidal dose-response curvecells. Alternatively, cells were lysed in 80 μL lysis buffer (50 mM HEPES [4-(2-hydroxyethyl)-1-piperazineethanesulfonic acid], pH 7.5, 150 mM NaCl, 1.5 mM MgCl2, 1 mM ethylene glycol tetraacetic acid [EGTA], 1% Triton X-100 and 10% glycerol) for 30 minutes at 4° C. After centrifugation at 14,000 g for 15 minutes, the supernatants were boiled in Laemmli sample buffer, subjected to 4-20% SDS-PAGE, and analyzed by Western blotting with anti-MBP, anti-myelin-associated glycoprotein (MAG), or anti-beta actin antibodies. The secondary antibodies used were anti-mouse IgG-HRP (horseradish peroxidase) and anti-rabbit IgG-HRP respectively.

Usually EC50 stands for the concentration giving half of the maximal effect. For `CC1(C(=O)O)CCN(Cc2ccc3cc(O[C@H]4CC[C@H](C(C)(C)C)CC4)ccc3c2)CC1` [Example 77, 1-((6-(trans-4-tert-Butylcyclohexyloxy)naphthalen-2-yl)methyl)-4-methylpiperidine-4-carboxylic acid], the “activity in the OPC assay at 2 micromolar” value (“activity … at 2 micromolar” for short) was “+ to ++++” and the “activity in the OPC assay at 20 micromolar” value (“activity … at 20 micromolar” for short) is recorded as “+ to ++++”. The compound further gave an EC50 (Rattus norvegicus, 72 h, MSD analysis) of less than 10 µM.

For `O=C(O)C1CCN(Cc2ccc3cc(OC4CCCCCC4)ccc3c2)CC1` [Example 81, 1-((6-(cycloheptyloxy)naphthalen-2-yl)methyl)piperidine-4-carboxylic acid], the “activity … at 20 micromolar” value is on record as “+ to ++++”.

On to `O=C(O)C1CCN(Cc2ccc3cc(OC4CCOCC4)ccc3c2)CC1` [Example 83, 1-((6-(tetrahydro-2H-pyran-4-yloxy)naphthalen-2-yl)methyl)piperidine-4-carboxylic acid], for which the “activity … at 2 micromolar” value was “+ to ++++” and the “activity … at 20 micromolar” value was “+ to ++++”.

Consider `O=C(O)C1CCN(Cc2ccc3cc(OC4CCC5(CCCCC5)CC4)ccc3c2)CC1` [Example 85, 1-((6-(spiro[5.5]undecan-3-yloxy)naphthalen-2-yl)methyl)piperidine-4-carboxylic acid], for which the “activity … at 2 micromolar” value is “+ to ++++” and the “activity … at 20 micromolar” value is on record as “+ to ++++”.

As to `O=C(O)C1CCN(Cc2ccc3cc(OC4CCC5(CCC5)CC4)ccc3c2)CC1` [Example 87, 1-((6-(spiro[3.5]nonan-7-yloxy)naphthalen-2-yl)methyl)piperidine-4-carboxylic acid], the “activity … at 20 micromolar” value is reported as “+ to ++++”.

With `CC(C)(C)[C@H]1CC[C@H](Oc2ccc3cc(CN4CCCCC4C(=O)O)ccc3c2)CC1` (stereo partly shown) [Example 88, 1-[6-(4-tert-Butyl-cyclohexyloxy)-naphthalen-2-ylmethyl]-piperidine-2-carboxylic acid], the “activity … at 2 micromolar” value is given as “+ to ++++”.
